Assay results: paper PMC6581572 (ChemMedChem, 2019)
pEC50, pIC50: −log10 of the molar value. Read-outs that look alike come from different tables or passages of the source.

Experiments:
IAV endonuclease = IAV endonuclease (Influenza A virus, UniProt C3W5S0); experiment: High throughput endonuclease assay; assay type: biochemical, influenza A/California/04/09 H1N1; conditions: for LE kcal/(mol·NHA): ligand efficiency, Tables 1 and 2
[1] = test system: influenza A/Puerto Rico/08/1934 H1N1 expressing mCherry (PR8-mCherry); conditions: read-out: EC50, antiviral activity; cellular assay, previously reported; cited from earlier work
[2] = Chemical stability of the isolated compound; assay type: physicochemical; conditions: isolated tetrazole product, two synthetic routes

| SMILES | pIC50 (IAV endonuclease) | LE kcal/(mol·NHA) (IAV endonuclease; LE = −RTln(IC50)/NHA) | other results |
| --- | --- | --- | --- |
| NS(=O)(=O)c1ccc(-c2cc(O)c(=O)[nH]c2-c2ccc(F)cc2)cc1 [Compound 15, 4-(2-(4-Fluorophenyl)-5-hydroxy-6-oxo-1,6-dihydropyridin-3-yl)benzenesulfonamide] | 6.46 | 0.354 kcal/(mol·NHA) | – |
| Cn1nnc(-c2ccc(-c3cc(O)c(=O)[nH]c3-c3ccc(F)cc3)cc2)n1 [Compound 14, 6-(4-Fluorophenyl)-3-hydroxy-5-(4-(2-methyl-2H-tetrazol-5-yl)phenyl)pyridin-2(1H)-one] | 6.86 | 0.348 kcal/(mol·NHA) | – |
| COC(=O)c1ccc(-c2cc(O)c(=O)[nH]c2-c2ccc(F)cc2)cc1 [Compound 12, Methyl 4-(2-(4-fluorophenyl)-5-hydroxy-6-oxo-1,6-dihydropyridin-3-yl)benzoate] | 6.90 | – | – |
| O=c1[nH]c(-c2ccc(F)cc2)c(-c2ccc(-c3nnn[nH]3)cc2)cc1O [Compound 2] | – | – | pEC50 [1]: 4.96 |
| O=c1[nH]c(-c2ccc(F)cc2)c(-c2ccc(-c3cnn[nH]3)cc2)cc1O [Compound 17, 5-(4-(1H-1,2,3-Triazol-5-yl)phenyl)-6-(4-fluorophenyl)-3-hydroxypyridin-2(1H)-one] | 7.60 | 0.401 kcal/(mol·NHA) | – |
| N#Cc1ccc(-c2cc(O)c(=O)[nH]c2-c2ccc(F)cc2)cc1 [Compound 1] | – | 0.409 kcal/(mol·NHA) | – |
| O=c1[nH]c(Cc2ccc(F)cc2)c(-c2ccc(-c3nnn[nH]3)cc2)cc1O [Compound 21, 5-(4-(1H-Tetrazol-5-yl)phenyl)-6-(4-fluorobenzyl)-3-hydroxypyridin-2(1H)-one] | 7.59 | 0.385 kcal/(mol·NHA) | – |
| N#Cc1ccc(-c2cc(O)c(=O)[nH]c2Cc2ccc(F)cc2)cc1 [Compound 18, 4-(2-(4-Fluorobenzyl)-5-hydroxy-6-oxo-1,6-dihydropyridin-3-yl)benzonitrile] | 6.29 | 0.360 kcal/(mol·NHA) | – |
| O=c1[nH]c(Cc2ccc3ccccc3c2)c(-c2ccc(-c3nnn[nH]3)cc2)cc1O [Compound 23, 5-(4-(1H-Tetrazol-5-yl)phenyl)-3-hydroxy-6-(naphthalen-2-ylmethyl)pyridin-2(1H)-one] | – | 0.328 kcal/(mol·NHA) | – |
| N#Cc1ccc(-c2cc(O)c(=O)[nH]c2-c2ccc3ccccc3c2)cc1 [Compound 10, 4-(5-Hydroxy-2-(naphthalen-2-yl)-6-oxo-1,6-dihydropyridin-3-yl)benzonitrile] | – | 0.330 kcal/(mol·NHA) | – |
| O=c1[nH]c(-c2ccc(-c3nnn[nH]3)cc2)c(-c2ccc(F)cc2)cc1O [Compound 7] | – | 0.403 kcal/(mol·NHA) | – |
| N#Cc1ccc(-c2[nH]c(=O)c(O)cc2-c2ccc(F)cc2)cc1 [Compound 6] | – | 0.433 kcal/(mol·NHA) | – |
| O=C(O[C@@H]1Cc2c(O)cc(O)cc2O[C@@H]1c1cc(O)c(O)c(O)c1)c1cc(O)c(O)c(O)c1 [epigallocatechin gallate, reference compound] | – | – | ligand efficiency of reference inhibitor (IAV endonuclease; LE = −RTln(IC50)/NHA): 0.249 kcal/(mol·NHA); pIC50 (IAV endonuclease; read-out: IC50 of reference inhibitor in this assay, green tea catechin): 6.00 |
| N#Cc1ccc(-c2[nH]c(=O)c(O)cc2Cc2ccc3ccccc3c2)cc1 [Compound 27, 4-(5-Hydroxy-3-(naphthalen-2-ylmethyl)-6-oxo-1,6-dihydropyridin-2-yl)benzonitrile] | 6.60 | 0.335 kcal/(mol·NHA) | – |
| O=c1[nH]c(-c2ccc(-c3nnn[nH]3)cc2)c(Cc2ccc(F)cc2)cc1O [Compound 28, 6-(4-(1H-Tetrazol-5-yl)phenyl)-5-(4-fluorobenzyl)-3-hydroxypyridin-2(1H)-one] | 7.27 | 0.369 kcal/(mol·NHA) | – |
| O=c1[nH]c(-c2ccc(-c3nnn[nH]3)cc2)c(Cc2cccc3ccccc23)cc1O [Compound 29, 6-(4-(1H-Tetrazol-5-yl)phenyl)-3-hydroxy-5-(naphthalen-1-ylmethyl)pyridin-2(1H)-one] | – | 0.362 kcal/(mol·NHA) | – |
| O=c1[nH]c(-c2cccc3ccccc23)c(-c2ccc(-c3nnn[nH]3)cc2)cc1O [Compound 9, 5-(4-(1H-Tetrazol-5-yl)phenyl)-3-hydroxy-6-(naphthalen-1-yl)pyridin-2(1H)-one] | – | 0.354 kcal/(mol·NHA) | – |
| O=C(O)c1ccc(-c2cc(O)c(=O)[nH]c2-c2ccc(F)cc2)cc1 [Compound 11, 4-(2-(4-Fluorophenyl)-5-hydroxy-6-oxo-1,6-dihydropyridin-3-yl)benzoic acid] | 7.96 | 0.455 kcal/(mol·NHA) | – |
| O=C(O)c1ccc(-c2[nH]c(=O)c(O)cc2-c2ccc(F)cc2)cc1 [Compound 24, 4-(3-(4-Fluorophenyl)-5-hydroxy-6-oxo-1,6-dihydropyridin-2-yl)benzoic acid] | 7.26 | 0.415 kcal/(mol·NHA) | – |
| N#Cc1ccc(-c2[nH]c(=O)c(O)cc2Cc2cccc3ccccc23)cc1 [Compound 26, 4-(5-Hydroxy-3-(naphthalen-1-ylmethyl)-6-oxo-1,6-dihydropyridin-2-yl)benzonitrile] | 6.76 | 0.343 kcal/(mol·NHA) | – |
| N#Cc1ccc(-c2cc(O)c(=O)[nH]c2Cc2cccc3ccccc23)cc1 [Compound 19, 4-(5-Hydroxy-2-(naphthalen-1-ylmethyl)-6-oxo-1,6-dihydropyridin-3-yl)benzonitrile] | 6.94 | 0.353 kcal/(mol·NHA) | – |
| Cn1nnnc1-c1ccc(-c2cc(O)c(=O)[nH]c2-c2ccc(F)cc2)cc1 [Compound 13, 6-(4-Fluorophenyl)-3-hydroxy-5-(4-(1-methyl-1H-tetrazol-5-yl)phenyl)pyridin-2(1H)-one] | 6.53 | 0.331 kcal/(mol·NHA) | – |
| N#Cc1ccc(-c2cc(O)c(=O)[nH]c2-c2cccc3ccccc23)cc1 [Compound 8, 4-(5-Hydroxy-2-(naphthalen-1-yl)-6-oxo-1,6-dihydropyridin-3-yl)benzonitrile] | 6.66 | 0.351 kcal/(mol·NHA) | – |
| CC(=O)NS(=O)(=O)c1ccc(-c2cc(O)c(=O)[nH]c2-c2ccc(F)cc2)cc1 [Compound 16, N-((4-(2-(4-Fluorophenyl)-5-hydroxy-6-oxo-1,6-dihydropyridin-3-yl)phenyl)sulfonyl)acetamide] | 6.84 | 0.335 kcal/(mol·NHA) | – |
| N#Cc1ccc(-c2cc(O)c(=O)[nH]c2Cc2ccc3ccccc3c2)cc1 [Compound 20, 4-(5-Hydroxy-2-(naphthalen-2-ylmethyl)-6-oxo-1,6-dihydropyridin-3-yl)benzonitrile] | 6.18 | 0.314 kcal/(mol·NHA) | – |
| O=c1[nH]c(Cc2cccc3ccccc23)c(-c2ccc(-c3nnn[nH]3)cc2)cc1O [Compound 22, 5-(4-(1H-Tetrazol-5-yl)phenyl)-3-hydroxy-6-(naphthalen-1-ylmethyl)pyridin-2(1H)-one] | – | 0.358 kcal/(mol·NHA) | – |
| N#Cc1ccc(-c2[nH]c(=O)c(O)cc2Cc2ccc(F)cc2)cc1 [Compound 25, 4-(3-(4-Fluorobenzyl)-5-hydroxy-6-oxo-1,6-dihydropyridin-2-yl)benzonitrile] | 6.32 | 0.361 kcal/(mol·NHA) | – |
| O=c1[nH]c(-c2ccc(-c3nnn[nH]3)cc2)c(Cc2ccc3ccccc3c2)cc1O [Compound 30, 6-(4-(1H-Tetrazol-5-yl)phenyl)-3-hydroxy-5-(naphthalen-2-ylmethyl)pyridin-2(1H)-one] | – | 0.324 kcal/(mol·NHA) | – |
| O=c1[nH]c(-c2ccc3ccccc3c2)c(-c2ccc(-c3nn[nH]n3)cc2)cc1O [tetrazole derivative of 10, 6-(2-naphthyl)-5-(p-(5-tetrazoyl)phenyl)-3-hydroxypyridin-2(1H)-one] | – | – | Stability of the isolated product [2]: unexpectedly unstable |
